In brackets after ≈: the same amount, converted by molar mass. Like-named read-outs stand apart in the source and are kept apart here. Positions of bridges follow the written chain, without caps; N, C: chain ends. Non-standard residues stand in square brackets, D forms with d. Residues, ends and D or L forms follow the SMILES beside them. *: point of attachment. Decanoyl(3R-OH) = CCCCCCC[C@@H](O)CC(=O)*; dPhe(4-NH2) = Nc1ccc(C[C@@H](N)C(=O)O)cc1; 1Nal = N[C@@H](Cc1cccc2ccccc12)C(=O)O; Igl = N[C@H](C(=O)O)C1Cc2ccccc2C1; dDab = NCC[C@@H](N)C(=O)O; dDap = NC[C@@H](N)C(=O)O; Dab = NCC[C@H](N)C(=O)O
Experiments:
A. baumannii ATCC 19606 = conditions: ATCC 19606
How it was run: (§1)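 Mid-log cultures grown in Mueller Hinton broth at 37° C were tested by 2-fold broth microdilution at 5×10^5 CFU/mL final. Compounds were dissolved in water and tested over a final range of 32 to 0.015 μg/mL.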

[1] = system: S. aureus ATCC 25923, MSSA; conditions: ATCC 25923
How it was run: as §1

K. pneumoniae ATCC 13883 = conditions: ATCC 13883
How it was run: as §1

[2] = system: K. pneumoniae GN_106, PmxR; conditions: GN 106, PmxR
How it was run: as §1

[3] = system: K. pneumoniae GN_102 PmxR; conditions: GN 102 PmxR
How it was run: as §1

A. baumannii GN_093 PmxR = conditions: GN 093 PmxR
How it was run: as §1

[4] = system: P. aeruginosa GN_043, PmxR
How it was run: as §1

P. aeruginosa ATCC 27853 = conditions: ATCC 27853
How it was run: as §1

E. coli ATCC 25922 = conditions: ATCC 25922
How it was run: as §1

[5] = system: P. aeruginosa GN_105, PmxR; conditions: GN 105, PmxR
How it was run: as §1

[6] = system: K. pneumoniae ATCC BAA-2146, NDM-1 pos; conditions: ATCC BAA-2146
How it was run: as §1

[7] = system: K. pneumoniae ATCC 700603, MDR; conditions: ATCC 700603
How it was run: as §1

in vitro [8] = conditions: human
How it was run: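 4000 cells/well, 24 h attach (37 °C, 5% CO2); compound 24 h; 5 μM resazurin 2 h, 37 °C; fluorescence ex/em 560/590. CC50 by curve fit.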

Neisseria gonorrhoeae = test: MIC determination, Neisseria gonorrhoeae; assay type: cell-based; conditions: strain FA19 ATCC BAA-1838
Procedure: Bacteria were either obtained from American Type Culture Collection (ATCC; Manassas, Va., USA) or independent academic clinical isolate collections, as listed in Table 18 below. Bacteria were cultured in Nutrient broth (NB; Bacto Laboratories, catalogue No. 234000) or Mueller Hinton broth (MHB; Bacto Laboratories, catalogue No. 211443) at 37° C. overnight with shaking (˜180 RPM). A sample of each culture was then diluted 50-fold in fresh MHB and incubated at 37° C. for 2-3 h with shaking (˜180 RPM). Compound stock solutions were prepared as 0.64 mg/mL or 2.56 mg/mL in water. The compounds, at twice the final desired concentration, were serially diluted 2-fold across the wells of 96-well plates (Polystyrene, Corning, catalogue No. 3370). Mid-log phase bacterial cultures (after 2-3 h incubation) were diluted to a final concentration of 1×10^6 colony forming units (CFU)/mL, and 50 μL was added to each well giving a final cell density of 5×10^5 and a compound concentration range of 32 μg/mL to 0.015 μg/mL (128-0.06 μg/mL against P. aeruginosa PA9704).

in vitro [9] = conditions: human; remark: listed apart in the source
How it was run: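 HK2 cells were seeded at 2000 per well in DMEM/F12 with 10% FBS and left to attach for 24 h at 37 °C, 5% CO2. They were then exposed for 24 h to 3-fold peptide dilutions starting from 600 μM solutions in quadruplicate. LDH release was read at 450 nm, and CC50 was fitted from dose-response curves.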

Structure (SMILES) | MIC A. baumannii ATCC 19606 (A. baumannii ATCC 19606) [µg/mL] | MIC S. aureus ATCC 25923, MSSA [1] [µg/mL] | MIC K. pneumoniae ATCC 13883 (K. pneumoniae ATCC 13883) [µg/mL] | MIC K. pneumoniae GN_106, PmxR [2] [µg/mL] | MIC K. pneumoniae GN_102 PmxR [3] [µg/mL] | MIC A. baumannii GN_093 PmxR (A. baumannii GN_093 PmxR) [µg/mL] | MIC P. aeruginosa GN_043, PmxR ([4]; polymyxin-resistant) [µg/mL] | MIC P. aeruginosa ATCC 27853 (P. aeruginosa ATCC 27853) [µg/mL] | MIC E. coli ATCC 25922 (E. coli ATCC 25922) [µg/mL] | MIC P. aeruginosa GN_105, PmxR [5] [µg/mL] | MIC K. pneumoniae ATCC BAA-2146, NDM-1 pos [6] [µg/mL] | MIC K. pneumoniae ATCC 700603, MDR [7] [µg/mL] | CC50 at 24 h (in vitro [8]) [µM] | MIC N. gonorrhoeae FA19 ATCC BAA-1838 (Neisseria gonorrhoeae) [µg/mL] | further results
CCCCCCC[C@@H](O)CC(=O)N[C@H](CCN)C(=O)N[C@H]1CCNC(=O)[C@H](Cc2cccc3ccccc23)NC(=O)[C@H](CCN)NC(=O)[C@H](CCN)NC(=O)[C@H](CC(C)C)NC(=O)[C@@H](Cc2ccccc2)NC(=O)[C@H](CCN)NC1=O [compound 8909, 3(R)OH-nC9CO-D-Dab-cyc[L-Dab-L-Dab-D-Phe-L-Leu-L-Dab-L-Dab-L-Ala(1Naphthyl)]] ({Decanoyl(3R-OH)}-[dDab][Dab][Dab][dF]L[Dab][Dab][1Nal]; lactam 2-C) | 4 (≈ 3.54 µM) | 2 (≈ 1.77 µM) | 2 (≈ 1.77 µM) | 4 (≈ 3.54 µM) | 4 (≈ 3.54 µM) | 4 (≈ 3.54 µM) | 4 (≈ 3.54 µM) | 2 (≈ 1.77 µM) | 2 (≈ 1.77 µM) | 2 (≈ 1.77 µM) | 4 (≈ 3.54 µM) | 2 (≈ 1.77 µM) | 26 | 0.78 (≈ 0.691 µM) | –
CCCCCCC[C@@H](O)CC(=O)N[C@H](CCN)C(=O)N[C@H]1CCNC(=O)[C@H](Cc2c[nH]c3ccccc23)NC(=O)[C@H](CCN)NC(=O)[C@H](CCN)NC(=O)[C@H](C2Cc3ccccc3C2)NC(=O)[C@@H](Cc2ccccc2)NC(=O)[C@H](CCN)NC1=O [compound 8103, 3(R)OH-nC9CO-D-Dab-cyc[L-Dab-L-Dab-L-Dab-D-Phe-L-indanylgly-L-Dab-L-Dab-L-Trp]] ({Decanoyl(3R-OH)}-[dDab][Dab][Dab][dF][Igl][Dab][Dab]W; lactam 2-C) | 4 (≈ 3.4 µM) | 2 (≈ 1.7 µM) | 4 (≈ 3.4 µM) | 4 (≈ 3.4 µM) | 4 (≈ 3.4 µM) | 4 (≈ 3.4 µM) | 2 (≈ 1.7 µM) | 4 (≈ 3.4 µM) | 2 (≈ 1.7 µM) | 2 (≈ 1.7 µM) | 4 (≈ 3.4 µM) | 2 (≈ 1.7 µM) | – | 0.2 (≈ 0.17 µM) | –
CCCCCCC[C@@H](O)CC(=O)N[C@H](CN)C(=O)N[C@H]1CCNC(=O)[C@H](CC(C)C)NC(=O)[C@H](CCN)NC(=O)[C@H](CO)NC(=O)[C@H](CC(C)C)NC(=O)[C@@H](Cc2ccccc2)NC(=O)[C@H](CCN)NC1=O [compound 9193, 3(R)-OH-nC9CO-D-Dab-cyc[L-Dab-L-Dab-L-Leu-D-Phe-L-Dab-L-Dab-L-Leu]] ({Decanoyl(3R-OH)}-[dDap][Dab][Dab][dF]LS[Dab]L; lactam 2-C) | – | – | – | – | – | – | – | – | – | – | – | – | > 300 | 25 (≈ 24.6 µM) | MIC, A. baumannii ATCC 19606 (A. baumannii ATCC 19606): 32 µg/mL (≈ 31.5 µM); MIC, S. Aureus ATCC 25923, MSSA [1]: >32 µg/mL; MIC, K. pneumoniae ATCC 13883 (K. pneumoniae ATCC 13883): >32 µg/mL; MIC, K. pneumoniae Cl 138-16347-20362, PmxR [2]: >32 µg/mL; MIC, K. pneumoniae Cl Koprana 10065 0661:1, PmxR [3]: >32 µg/mL; MIC, A. baumannii Cl Ptyela 10073 4512:2, PmxR (A. baumannii GN_093 PmxR): >32 µg/mL; MIC, P. aeruginosa FADDI-PA070, PmxR ([4]; Table 5, polymyxin-resistant): >32 µg/mL; MIC, P. aeruginosa ATCC 27853 (P. aeruginosa ATCC 27853): 32 µg/mL (≈ 31.5 µM); MIC, E. coli ATCC 25922 (E. coli ATCC 25922): >32 µg/mL; MIC, P. aeruginosa PA9704, PmxR [5]: >32 µg/mL; MIC, K. pneumoniae ATCC BAA-2146, NDM-1 pos [6]: >32 µg/mL; MIC, K. pneumoniae ATCC 700603, MDR [7]: >32 µg/mL
CCCCCCC[C@@H](O)CC(=O)N[C@H](Cc1ccc(N)cc1)C(=O)N[C@H]1CCNC(=O)[C@H]([C@@H](C)O)NC(=O)[C@H](CCN)NC(=O)[C@H](CCN)NC(=O)[C@H](CC(C)C)NC(=O)[C@@H](Cc2ccccc2)NC(=O)[C@H](CCN)NC1=O [compound 6397, 3(R)OH-nC9CO-D-4NH2Phe-cyc[L-Dab-L-Dab-D-Phe-L-Leu-L-Dab-L-Dab-L-Thr]] ({Decanoyl(3R-OH)}-[dPhe(4-NH2)][Dab][Dab][dF]L[Dab][Dab]T; lactam 2-C) | >64 | >32 | >64 | >32 | >32 | >32 | – | >64 | >64 | >32 | >64 | >64 | – | – | MIC P. aeruginosa GN_043, PmxR ([4]; P. aeruginosa GN_043, PmxR): >32 µg/mL; CC50 at 24 h (in vitro [9]): > 300 µM
